Each molecule was assayed against T1, human α7 nAChR (Homo sapiens, UniProt P36544) (assay: Evaluation of PAM activity with human α7 nACh receptor stably expressing cells (aequorin luminescence, FDSS7000)). Details: 1 μM test compound (values marked *, footnote of Table 25); ACh at EC20; ratio of RLU (Max-Min) to control wells; read-out: α7PAM (%) @1 μM.
T1 construct: expressed in transfected cells
Assay type: cell-based
Procedure, shortened: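 Human α7 nAChR stable cells loaded with 4 μM Viviren (final) for 4 h at room temperature in the dark. Compounds in Hanks/20 mM HEPES/0.2% BSA were added and luminescence recorded on FDSS7000. PAM activity = RLU (Max-Min) ratio of test wells to control wells.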

T1 sequence (P36544 23-502): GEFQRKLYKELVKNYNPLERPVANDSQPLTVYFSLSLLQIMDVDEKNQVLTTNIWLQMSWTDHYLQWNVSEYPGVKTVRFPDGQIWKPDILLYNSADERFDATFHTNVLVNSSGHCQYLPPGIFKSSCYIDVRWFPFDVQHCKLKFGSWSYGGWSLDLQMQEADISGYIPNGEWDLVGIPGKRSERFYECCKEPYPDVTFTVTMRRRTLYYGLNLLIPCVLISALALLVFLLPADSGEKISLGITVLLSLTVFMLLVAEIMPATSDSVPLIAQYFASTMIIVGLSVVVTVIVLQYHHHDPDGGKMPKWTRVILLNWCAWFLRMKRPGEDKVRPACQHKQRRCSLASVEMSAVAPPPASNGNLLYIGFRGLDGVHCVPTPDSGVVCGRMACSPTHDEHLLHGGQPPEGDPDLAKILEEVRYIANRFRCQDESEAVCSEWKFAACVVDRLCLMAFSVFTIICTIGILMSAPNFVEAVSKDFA

| activity at 1 µM | SMILES |
| --- | --- |
| 130% | O=C(NC1CCOCC1)[C@H]1CC[C@@H](n2cnc(-c3ccc(F)c(F)c3)c2)CC1 [Example 357] |
| 181% | COc1cc(-c2cn([C@H]3CC[C@@H](NC(=O)C(C)(C)F)CC3)cn2)ccc1Cl [Example 309] |
| 389% | O=C(N[C@H]1CC[C@@H](n2cnc(-c3cccc(F)c3)c2Cl)CC1)C1CCCC1 [Example 177] |
| 682% | O=C(N[C@H]1CC[C@@H](n2cnc(-c3ccc(F)cc3)c2Cl)CC1)C1CCCC1 [Example 182] |

Same assay, conditions: 10 μM test compound; ACh at EC20; ratio of RLU (Max-Min) to control wells; read-out: α7PAM (%) @10 μM

| SMILES | activity at 10 µM |
| --- | --- |
| CC(C)(C)C(=O)N[C@H]1CC[C@@H](n2cnc(-c3ccc(OC(F)(F)F)cc3)c2)CC1 [Example 279] | 236% |
| O=C(C1CCC(F)(F)CC1)N1[C@@H]2CC[C@H]1C[C@@H](n1cnc(-c3ccc(F)cc3F)c1)C2 [Example 426] | 308% |
| O=C(NC1CCOCC1)N1[C@@H]2CC[C@H]1C[C@@H](n1cnc(-c3ccc(F)cc3F)c1Cl)C2 [Example 395] | 869% |
| CC(C)(C)NC(=O)N1CCC(n2cnc(-c3ccccc3F)c2Cl)CC1 [Example 92] | 758% |
| CC(C)(F)C(=O)N[C@H]1CC[C@@H](n2cnc(-c3ccc(OC(F)(F)F)c(F)c3)c2Cl)CC1 [Example 324] | 860% |
| O=C(NC1CCCCC1)[C@H]1CC[C@@H](n2cnc(-c3ccccc3)c2)CC1 [Example 9, cis-N-Cyclohexyl-4-(4-phenyl-1H-imidazol-1-yl)cyclohexanecarboxamide] | 121% |
| O=C(NC1CCCCC1)N1[C@@H]2CC[C@H]1C[C@@H](n1cnc(-c3ccccc3)c1)C2 [Example 383] | 598% |
| O=C(C1CCOCC1)N1[C@@H]2CC[C@H]1C[C@@H](n1cnc(-c3cccc(F)c3F)c1Cl)C2 [Example 440] | 508% |
| CC(C)(F)C(=O)N[C@H]1CC[C@@H](n2cnc(-c3cccc(F)c3)c2)CC1 [Example 294] | 326% |
| O=C(NC1CCOCC1)N1[C@@H]2CC[C@H]1C[C@@H](n1cnc(-c3cccc(F)c3F)c1Cl)C2 [Example 399] | 891% |
| N#Cc1c(-c2ccc(F)cc2F)ncn1[C@@H]1C[C@H]2CC[C@@H](C1)N2C(=O)C1CCC(F)(F)CC1 [Example 462] | 384% |
| O=C(NC1CCCCC1)N1CCC(n2cnc(-c3cc(F)cc(F)c3)c2)CC1 [Example 34] | 596% |

Other lines, results leading:

| activity at 10 µM | SMILES |
| --- | --- |
| 912% | Cc1c(-c2ccc(F)cc2)ncn1C1CCN(C(=O)C2CCC(F)(F)CC2)CC1 [Example 275] |
| 537% | O=C(NC1COC1)[C@H]1CC[C@@H](n2cnc(-c3ccc(F)cc3)c2Cl)CC1 [Example 364] |
| 834% | O=C(NC1CCOC1)[C@H]1CC[C@@H](n2cnc(-c3ccc(F)cc3)c2Cl)CC1 (some centres unmarked) [Example 366] |
| 275% | N#Cc1c(-c2ccc(F)cc2F)ncn1C1CCN(C(=O)C2CCC(F)(F)CC2)CC1 [Example 271] |
| 351% | CC(C)(F)C(=O)N[C@H]1CC[C@@H](n2cnc(-c3cccc(F)c3F)c2C#N)CC1 [Example 339] |
| 309% | O=C(NC1CCC(F)(F)CC1)N1CCC(n2cnc(-c3ccncc3)c2Cl)CC1 [Example 136] |
| 551% | O=C(N[C@H]1CC[C@@H](n2cnc(-c3ccccc3)c2Cl)CC1)C1CCC1 [Example 171] |
| 312% | N#Cc1c(-c2ccc(F)cc2)ncn1[C@H]1CC[C@@H](NC(=O)C2CCC(F)(F)CC2)CC1 [Example 335] |
| 252% | N#Cc1c(-c2cccc(F)c2)ncn1C1CCN(C(=O)C2CCC(F)(F)CC2)CC1 [Example 155] |
| 269% | COc1ccc(-c2ncn([C@H]3CC[C@@H](NC(=O)C4CCC4)CC3)c2Cl)cc1Cl [Example 179] |
| 878% | O=C(NC1CCC(F)(F)CC1)N1CCC(n2cnc(-c3cc(F)cc(F)c3)c2)CC1 [Example 35] |
| 557% | N#Cc1c(-c2ccc(F)cc2)ncn1[C@H]1CC[C@@H](NC(=O)C2CCOCC2)CC1 [Example 336] |

Same assay, conditions: comparison across Tables 18 to 25

| PAM activity for α7 nAChR (in words) | SMILES |
| --- | --- |
| stronger PAM activity than others | O=C(NC1CCC(F)(F)CC1)N1CCC(n2cnc(-c3ccc(Cl)s3)c2)CC1 [Example 118] |

From US20150259344A1, “IMIDAZOLE DERIVATIVE” (DAINIPPON SUMITOMO PHARMA CO., LTD., priority 2012, published 2015)
